What was measured:
[1] = molecular target: Casein kinase I isoform delta (Homo sapiens) (UniProt P48730); assay: Inhibition of human CK1D catalytic domain expressed in Escherichia coli cell assessed as substrate phosphorylation using fluorescence-labelled peptides as substrate at 420 uM after 90 mins by microfluidic peptide phosphorylation assay
[2] = molecular target: T1, Serine/threonine-protein kinase Sgk1 (Homo sapiens) (UniProt O00141); assay: Inhibition of human truncated SGK1 expressed in baculovirus assessed as substrate phosphorylation using fluorescence-labelled peptides as substrate at 9 uM after 90 mins by microfluidic peptide phosphorylation assay
T1 sequence (whole entry): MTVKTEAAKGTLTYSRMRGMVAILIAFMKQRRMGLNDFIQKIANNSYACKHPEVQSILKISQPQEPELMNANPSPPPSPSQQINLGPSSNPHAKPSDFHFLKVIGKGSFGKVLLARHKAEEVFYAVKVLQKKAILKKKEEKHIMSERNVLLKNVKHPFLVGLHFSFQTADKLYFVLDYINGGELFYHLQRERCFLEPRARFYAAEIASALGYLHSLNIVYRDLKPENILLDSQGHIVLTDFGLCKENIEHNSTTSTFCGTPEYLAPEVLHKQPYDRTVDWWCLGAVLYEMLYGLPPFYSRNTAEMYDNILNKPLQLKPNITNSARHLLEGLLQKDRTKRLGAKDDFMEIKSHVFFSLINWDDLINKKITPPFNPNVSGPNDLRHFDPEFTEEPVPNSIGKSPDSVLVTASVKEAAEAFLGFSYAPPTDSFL

[3] = molecular target: Ribosomal protein S6 kinase alpha-2 (Homo sapiens) (UniProt Q15349); assay: Inhibition of human full length RSK3 expressed in baculovirus assessed as substrate phosphorylation using fluorescence-labelled peptides as substrate at 2 uM after 90 mins by microfluidic peptide phosphorylation assay
Sequence of Ribosomal protein S6 kinase alpha-2 (Homo sapiens) (Q15349 whole entry, the tested form may be a part): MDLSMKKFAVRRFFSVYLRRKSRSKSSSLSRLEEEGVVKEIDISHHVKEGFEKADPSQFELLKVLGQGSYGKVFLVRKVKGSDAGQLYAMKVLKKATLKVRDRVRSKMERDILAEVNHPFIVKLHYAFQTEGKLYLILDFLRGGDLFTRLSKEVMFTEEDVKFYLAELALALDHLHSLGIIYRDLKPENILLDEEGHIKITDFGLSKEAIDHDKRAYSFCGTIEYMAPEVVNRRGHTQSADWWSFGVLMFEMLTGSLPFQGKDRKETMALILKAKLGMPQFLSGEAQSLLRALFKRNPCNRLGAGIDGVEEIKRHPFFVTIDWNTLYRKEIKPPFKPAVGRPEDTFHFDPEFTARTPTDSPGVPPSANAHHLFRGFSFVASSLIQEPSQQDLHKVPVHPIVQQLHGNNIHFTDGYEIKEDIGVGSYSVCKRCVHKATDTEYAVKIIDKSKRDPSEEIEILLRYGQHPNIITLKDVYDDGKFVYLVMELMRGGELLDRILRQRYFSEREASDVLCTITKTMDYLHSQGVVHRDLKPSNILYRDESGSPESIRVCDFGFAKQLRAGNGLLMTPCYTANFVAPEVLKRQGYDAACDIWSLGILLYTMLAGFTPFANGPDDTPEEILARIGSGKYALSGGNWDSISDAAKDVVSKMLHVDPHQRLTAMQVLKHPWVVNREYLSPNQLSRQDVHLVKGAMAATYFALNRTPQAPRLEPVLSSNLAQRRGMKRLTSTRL

[4] = molecular target: Tyrosine-protein kinase Fer (Homo sapiens) (UniProt P16591); assay: Inhibition of human FER catalytic domain expressed in baculovirus assessed as substrate phosphorylation using fluorescence-labelled peptides as substrate at 2 uM after 90 mins by microfluidic peptide phosphorylation assay
Sequence of Tyrosine-protein kinase Fer (Homo sapiens) (P16591 whole entry, looked up, the tested form may be a part): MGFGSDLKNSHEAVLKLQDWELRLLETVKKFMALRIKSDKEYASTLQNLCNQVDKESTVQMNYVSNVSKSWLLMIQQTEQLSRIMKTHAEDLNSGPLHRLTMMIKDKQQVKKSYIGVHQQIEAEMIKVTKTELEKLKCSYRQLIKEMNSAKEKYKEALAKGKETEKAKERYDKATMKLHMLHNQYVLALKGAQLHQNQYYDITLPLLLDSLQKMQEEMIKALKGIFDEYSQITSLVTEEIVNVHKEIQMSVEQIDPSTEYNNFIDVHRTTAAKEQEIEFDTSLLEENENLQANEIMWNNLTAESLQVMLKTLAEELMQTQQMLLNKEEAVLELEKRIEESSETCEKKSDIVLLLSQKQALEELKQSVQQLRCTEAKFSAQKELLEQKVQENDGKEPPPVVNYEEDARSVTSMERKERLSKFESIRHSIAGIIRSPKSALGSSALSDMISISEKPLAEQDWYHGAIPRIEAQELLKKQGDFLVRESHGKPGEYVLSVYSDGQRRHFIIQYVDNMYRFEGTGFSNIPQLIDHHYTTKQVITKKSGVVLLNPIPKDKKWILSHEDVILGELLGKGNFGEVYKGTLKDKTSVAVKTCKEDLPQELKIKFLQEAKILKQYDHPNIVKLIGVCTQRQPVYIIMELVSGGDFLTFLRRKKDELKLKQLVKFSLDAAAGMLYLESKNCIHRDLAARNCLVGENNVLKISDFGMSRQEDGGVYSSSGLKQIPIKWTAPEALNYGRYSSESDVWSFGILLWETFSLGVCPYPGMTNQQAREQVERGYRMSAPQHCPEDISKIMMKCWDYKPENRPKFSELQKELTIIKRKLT

[5] = molecular target: Receptor-type tyrosine-protein kinase FLT3 (Homo sapiens) (UniProt P36888); assay: Inhibition of human FLT3 catalytic domain expressed in baculovirus assessed as substrate phosphorylation using fluorescence-labelled peptides as substrate at 2 uM after 90 mins by microfluidic peptide phosphorylation assay
Sequence of Receptor-type tyrosine-protein kinase FLT3 (Homo sapiens) (P36888 whole entry, the tested form may be a part): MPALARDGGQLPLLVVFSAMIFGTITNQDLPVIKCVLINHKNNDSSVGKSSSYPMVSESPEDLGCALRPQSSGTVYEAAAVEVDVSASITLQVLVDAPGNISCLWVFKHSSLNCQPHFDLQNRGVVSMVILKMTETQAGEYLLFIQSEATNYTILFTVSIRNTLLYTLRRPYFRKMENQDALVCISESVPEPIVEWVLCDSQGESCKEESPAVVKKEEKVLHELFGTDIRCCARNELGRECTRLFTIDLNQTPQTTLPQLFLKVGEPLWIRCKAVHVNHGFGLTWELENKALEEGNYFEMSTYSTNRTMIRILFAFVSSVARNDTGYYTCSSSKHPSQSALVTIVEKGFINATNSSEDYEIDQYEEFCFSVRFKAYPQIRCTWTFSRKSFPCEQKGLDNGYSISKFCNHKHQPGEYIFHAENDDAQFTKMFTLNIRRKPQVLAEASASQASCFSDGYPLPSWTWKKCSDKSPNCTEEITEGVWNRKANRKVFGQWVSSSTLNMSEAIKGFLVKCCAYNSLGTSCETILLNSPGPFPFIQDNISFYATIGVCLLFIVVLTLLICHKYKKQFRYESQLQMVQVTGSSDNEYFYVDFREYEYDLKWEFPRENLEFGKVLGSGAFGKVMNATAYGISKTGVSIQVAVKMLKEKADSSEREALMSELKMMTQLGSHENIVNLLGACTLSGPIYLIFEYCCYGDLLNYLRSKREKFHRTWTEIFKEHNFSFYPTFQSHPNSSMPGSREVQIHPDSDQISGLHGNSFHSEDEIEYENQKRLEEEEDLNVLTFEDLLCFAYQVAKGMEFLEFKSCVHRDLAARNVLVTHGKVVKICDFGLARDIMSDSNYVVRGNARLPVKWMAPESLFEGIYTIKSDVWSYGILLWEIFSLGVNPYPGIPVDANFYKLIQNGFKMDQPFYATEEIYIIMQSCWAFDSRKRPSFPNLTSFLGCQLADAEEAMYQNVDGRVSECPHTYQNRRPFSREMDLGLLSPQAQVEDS

[6] = molecular target: T2, Testis-specific serine/threonine-protein kinase 1 (Homo sapiens) (UniProt Q9BXA7); conditions: 0.1 uM
T2 sequence (whole entry): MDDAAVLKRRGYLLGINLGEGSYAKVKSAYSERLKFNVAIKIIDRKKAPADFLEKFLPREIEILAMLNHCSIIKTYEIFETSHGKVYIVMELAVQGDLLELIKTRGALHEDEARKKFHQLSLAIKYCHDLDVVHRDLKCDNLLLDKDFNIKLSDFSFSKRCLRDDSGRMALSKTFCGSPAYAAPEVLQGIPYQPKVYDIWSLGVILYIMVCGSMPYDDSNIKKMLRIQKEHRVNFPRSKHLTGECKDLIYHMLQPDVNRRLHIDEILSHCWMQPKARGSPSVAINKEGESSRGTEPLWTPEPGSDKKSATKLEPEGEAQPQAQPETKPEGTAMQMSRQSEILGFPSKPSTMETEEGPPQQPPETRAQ
Description: Inhibition of human full length TSSK1 expressed in baculovirus assessed as substrate phosphorylation using fluorescence-labelled peptides as substrate at 0.1 uM after 90 mins by microfluidic peptide phosphorylation assay

[7] = molecular target: Tyrosine-protein kinase Lck (Homo sapiens) (UniProt P06239); conditions: 0.1 uM
Description: Inhibition of human full length LCK expressed in baculovirus assessed as substrate phosphorylation using fluorescence-labelled peptides as substrate at 0.1 uM after 90 mins by microfluidic peptide phosphorylation assay

[8] = molecular target: Vascular endothelial growth factor receptor 2 (Homo sapiens) (UniProt P35968); assay: Inhibition of human KDR cytoplasmic domain expressed in baculovirus assessed as substrate phosphorylation using fluorescence-labelled peptides as substrate at 95 uM after 90 mins by microfluidic peptide phosphorylation assay
[9] = molecular target: Rho-associated protein kinase 2 (Homo sapiens) (UniProt O75116); assay: Inhibition of human ROCK2 catalytic domain expressed in baculovirus assessed as substrate phosphorylation using fluorescence-labelled peptides as substrate at […] after 90 mins by microfluidic peptide phosphorylation assay
Sequence of Rho-associated protein kinase 2 (Homo sapiens) (O75116 whole entry, looked up, the tested form may be a part): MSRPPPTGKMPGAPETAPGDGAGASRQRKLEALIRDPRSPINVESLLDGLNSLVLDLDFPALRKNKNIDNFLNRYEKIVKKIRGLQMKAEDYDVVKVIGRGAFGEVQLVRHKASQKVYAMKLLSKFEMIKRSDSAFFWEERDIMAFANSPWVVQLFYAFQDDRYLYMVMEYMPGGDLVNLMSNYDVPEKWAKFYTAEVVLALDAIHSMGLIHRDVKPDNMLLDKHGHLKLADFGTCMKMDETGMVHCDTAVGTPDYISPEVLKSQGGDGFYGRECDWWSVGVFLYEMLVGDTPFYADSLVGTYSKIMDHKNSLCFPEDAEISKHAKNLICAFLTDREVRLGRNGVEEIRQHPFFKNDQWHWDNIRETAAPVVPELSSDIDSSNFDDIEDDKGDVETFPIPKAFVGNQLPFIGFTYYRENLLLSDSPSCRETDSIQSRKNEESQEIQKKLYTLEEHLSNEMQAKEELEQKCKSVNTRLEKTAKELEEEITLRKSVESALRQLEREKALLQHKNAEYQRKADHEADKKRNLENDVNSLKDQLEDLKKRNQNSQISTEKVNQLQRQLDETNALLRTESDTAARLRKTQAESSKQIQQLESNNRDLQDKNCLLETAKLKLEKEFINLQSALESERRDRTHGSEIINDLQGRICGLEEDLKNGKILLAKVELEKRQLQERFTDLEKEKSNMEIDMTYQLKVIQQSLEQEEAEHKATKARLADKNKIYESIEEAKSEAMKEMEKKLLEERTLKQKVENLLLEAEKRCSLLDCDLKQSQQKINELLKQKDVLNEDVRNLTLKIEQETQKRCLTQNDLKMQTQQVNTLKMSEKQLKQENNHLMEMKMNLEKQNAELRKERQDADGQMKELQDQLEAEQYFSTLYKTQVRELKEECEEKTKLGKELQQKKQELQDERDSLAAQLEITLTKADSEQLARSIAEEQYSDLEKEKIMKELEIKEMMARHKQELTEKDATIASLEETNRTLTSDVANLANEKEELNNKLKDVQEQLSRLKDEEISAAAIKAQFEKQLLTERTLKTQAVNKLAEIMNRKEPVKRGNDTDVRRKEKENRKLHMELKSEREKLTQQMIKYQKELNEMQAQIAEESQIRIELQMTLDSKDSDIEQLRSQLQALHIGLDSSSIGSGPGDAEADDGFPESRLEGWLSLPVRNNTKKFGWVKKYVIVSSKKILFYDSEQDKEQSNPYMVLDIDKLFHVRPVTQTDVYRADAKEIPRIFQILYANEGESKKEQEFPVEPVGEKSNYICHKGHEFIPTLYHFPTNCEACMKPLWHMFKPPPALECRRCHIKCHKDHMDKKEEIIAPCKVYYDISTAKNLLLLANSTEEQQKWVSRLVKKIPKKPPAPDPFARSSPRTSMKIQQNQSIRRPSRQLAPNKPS

[10] = molecular target: MAP/microtubule affinity-regulating kinase 3 (Homo sapiens) (UniProt P27448); assay: Inhibition of human full length c-TAK1 expressed in Escherichia coli cell assessed as substrate phosphorylation using fluorescence-labelled peptides as substrate at 0.06 uM after 90 mins by microfluidic peptide phosphorylation assay
[11] = molecular target: Rho-associated protein kinase 2 (Homo sapiens) (UniProt O75116); assay: Inhibition of human ROCK2 catalytic domain expressed in baculovirus assessed as substrate phosphorylation using fluorescence-labelled peptides as substrate at 8 uM after 90 mins by microfluidic peptide phosphorylation assay
[12] = molecular target: Fibroblast growth factor receptor 1 (Homo sapiens) (UniProt P11362); assay: Inhibition of human FGFR1 catalytic domain expressed in baculovirus assessed as substrate phosphorylation using fluorescence-labelled peptides as substrate at 8 uM after 90 mins by microfluidic peptide phosphorylation assay
Sequence of Fibroblast growth factor receptor 1 (Homo sapiens) (P11362 22-822 limits assumed): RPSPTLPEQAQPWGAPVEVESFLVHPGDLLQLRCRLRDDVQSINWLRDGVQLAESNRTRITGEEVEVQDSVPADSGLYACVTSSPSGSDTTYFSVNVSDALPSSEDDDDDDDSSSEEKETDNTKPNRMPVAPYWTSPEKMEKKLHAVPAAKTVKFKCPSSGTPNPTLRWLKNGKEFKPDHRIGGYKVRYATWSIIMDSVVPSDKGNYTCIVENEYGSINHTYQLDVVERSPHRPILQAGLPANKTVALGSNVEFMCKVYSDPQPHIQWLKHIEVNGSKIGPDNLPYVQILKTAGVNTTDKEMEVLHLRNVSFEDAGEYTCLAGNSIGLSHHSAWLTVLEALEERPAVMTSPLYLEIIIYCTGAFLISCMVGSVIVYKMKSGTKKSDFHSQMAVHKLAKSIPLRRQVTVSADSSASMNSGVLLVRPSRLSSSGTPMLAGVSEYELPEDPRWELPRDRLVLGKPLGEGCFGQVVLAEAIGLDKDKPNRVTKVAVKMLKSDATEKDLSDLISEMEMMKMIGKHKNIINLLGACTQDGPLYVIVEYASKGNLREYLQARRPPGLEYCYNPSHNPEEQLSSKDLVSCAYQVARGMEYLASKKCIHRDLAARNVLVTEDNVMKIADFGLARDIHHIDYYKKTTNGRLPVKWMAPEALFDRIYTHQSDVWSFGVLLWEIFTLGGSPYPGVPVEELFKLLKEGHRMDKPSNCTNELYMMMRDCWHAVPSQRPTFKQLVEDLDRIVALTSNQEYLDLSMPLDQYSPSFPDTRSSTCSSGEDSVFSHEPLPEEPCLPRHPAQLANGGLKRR

[13] = molecular target: T3, Aurora kinase C (Homo sapiens) (UniProt Q9UQB9); assay: Inhibition of human full length AurC expressed in baculovirus assessed as substrate phosphorylation using fluorescence-labelled peptides as substrate at 1000 uM after 90 mins by microfluidic peptide phosphorylation assay
T3 sequence (whole entry): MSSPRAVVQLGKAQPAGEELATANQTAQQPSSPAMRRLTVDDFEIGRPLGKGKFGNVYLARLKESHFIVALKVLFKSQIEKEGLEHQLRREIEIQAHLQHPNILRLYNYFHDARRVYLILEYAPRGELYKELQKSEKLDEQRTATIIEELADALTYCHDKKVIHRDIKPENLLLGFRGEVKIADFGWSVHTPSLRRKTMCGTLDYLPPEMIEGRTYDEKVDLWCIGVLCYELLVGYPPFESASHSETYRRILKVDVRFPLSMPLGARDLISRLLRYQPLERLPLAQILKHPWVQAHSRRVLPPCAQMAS

[14] = molecular target: T4, Serine/threonine-protein kinase Sgk2 (Homo sapiens) (UniProt Q9HBY8); assay: Inhibition of human full length SGK2 expressed in baculovirus assessed as substrate phosphorylation using fluorescence-labelled peptides as substrate at 1000 uM after 90 mins by microfluidic peptide phosphorylation assay
T4 sequence (whole entry): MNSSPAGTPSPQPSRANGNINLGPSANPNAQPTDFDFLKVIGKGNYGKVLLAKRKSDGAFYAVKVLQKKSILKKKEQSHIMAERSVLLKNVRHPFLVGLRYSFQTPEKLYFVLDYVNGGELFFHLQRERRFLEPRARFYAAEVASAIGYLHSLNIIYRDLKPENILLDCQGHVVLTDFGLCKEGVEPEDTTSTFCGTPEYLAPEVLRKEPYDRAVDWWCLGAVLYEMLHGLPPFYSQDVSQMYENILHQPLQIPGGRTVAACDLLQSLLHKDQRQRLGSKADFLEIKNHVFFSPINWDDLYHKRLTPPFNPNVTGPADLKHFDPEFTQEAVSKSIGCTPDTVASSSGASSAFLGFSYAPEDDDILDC

[15] = molecular target: Tyrosine-protein kinase HCK (Homo sapiens) (UniProt P08631); assay: Inhibition of human HCK catalytic domain expressed in baculovirus assessed as substrate phosphorylation using fluorescence-labelled peptides as substrate at 1000 uM after 90 mins by microfluidic peptide phosphorylation assay

c1nc(N2CCOCC2)c2nc[nH]c2n1
inhibition [1]: 81.5%

NCC1CN(c2ncnc3[nH]c4cnccc4c23)CCO1 (stereo not given)
inhibition [2]: 51%

NC1CCN(c2ncnc3[nH]ccc23)CC1
inhibition [3]: 0% | inhibition [4]: 13.5% | inhibition [5]: 0%

C[C@H](CN(C)C)Oc1nc(Nc2cc3cccc(Cl)c3cn2)cnc1C#N
inhibition [6]: 0% | inhibition [7]: 0%

NCCc1ccc(-c2ncnc3[nH]cnc23)cc1
inhibition [8]: 72.5%

COC(=O)c1cnc(Nc2cnc(C#N)cn2)cc1NCC1CCNCC1
inhibition [9]: 2%

NC1(Cc2ccc(Cl)cc2)CCN(c2ncnc3[nH]ccc23)CC1
inhibition [10]: 0%

NCC1CCN(c2ncnc3[nH]ccc23)CC1
inhibition [11]: 89.5% | inhibition [12]: 36.5%

c1cnc2[nH]ccc2c1
inhibition [13]: 96% | inhibition [14]: 64% | inhibition [15]: 30%

— ChEMBL document CHEMBL3132769, “Fragment growing to retain or alter the selectivity of anchored kinase hinge-binding fragments” (Medchemcomm, 2014)
